Columns and labels:
Alternaria solani = test: Fungicidal activity against Alternaria solani / tomato / leaf disc (early blight); format: in vivo; details: foliar, tomato leaf disks, inoculated 2 days after application, compared to untreated, read-out: disease control
Procedure: Fungicidal Activity Against Alternaria solani/Tomato/Leaf Disc (Early Blight) Tomato leaf disks cv. Baby were placed on agar in multiwell plates (24-well format) and sprayed with the formulated test compound diluted in water. The leaf disks were inoculated with a spore suspension of the fungus 2 days after application. The inoculated leaf disks were incubated at 23° C./21° C.

[1] = test system: Blumeria graminis f. Sp. tritici (Erysiphe graminis f. sp. tritici); test: Fungicidal activity against Blumeria graminis f. sp. tritici / wheat / leaf disc preventative (powdery mildew on wheat); format: in vivo; details: foliar, wheat leaf segments, inoculated 1 day after application, compared to untreated, read-out: disease control
Procedure, shortened: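 Wheat cv. Kanzler leaf segments on agar were sprayed with the formulated compound diluted in water and inoculated with powdery mildew 1 day later. Incubation was at 20 °C and 60% rh: 24 h dark, then 12 h light/12 h dark. Percent disease control versus untreated was scored 6–8 days after application.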

[2] = test system: Botryotinia fuckeliana (Botrytis cinerea); test: Fungicidal activity against Botryotinia fuckeliana (Botrytis cinerea) / liquid culture (gray mould); format: cell-based; details: 3-4 days after application, read-out: disease control (inhibition of growth, photometrically)
Procedure, shortened: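 Conidia from cryogenic storage were mixed into Vogels broth and added to wells containing compound in DMSO. Plates incubated at 24 °C; growth inhibition read photometrically 3–4 days after application.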

Gaeumannomyces graminis = test: Fungicidal activity against Gaeumannomyces graminis / liquid culture (take-all of cereals); format: cell-based; details: 4-5 days after application, read-out: disease control (inhibition of growth, photometrically)
Procedure, shortened: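 Cryostored mycelial fragments in potato dextrose broth added to 96-well plates with test compound in DMSO. Plates kept at 24° C; growth inhibition measured photometrically 4-5 days after application.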

[3] = test system: Glomerella lagenarium (Colletotrichum lagenarium); test: Fungicidal activity against Glomerella lagenarium (Colletotrichum lagenarium) / liquid culture (anthracnose); format: cell-based; details: Colletotrichum orbiculare, 3-4 days after application, read-out: disease control (inhibition of growth, photometrically)
Procedure, shortened: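 Cryostored conidia mixed into potato dextrose broth were added to test compound in DMSO. Plates were incubated at 24° C. Growth inhibition was measured photometrically 3-4 days after application.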

[4] = test system: Monographella nivalis (Microdochium nivale); test: Fungicidal activity against Monographella nivalis (Microdochium nivale) / liquid culture (foot rot cereals); format: cell-based; details: 4-5 days after application, read-out: disease control (inhibition of growth, photometrically)
Procedure, shortened: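 Conidia in potato dextrose broth added to microtiter wells holding test compound in DMSO. Incubated at 24° C.; growth inhibition read photometrically 4-5 days after application.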

[5] = test system: Mycosphaerella arachidis (Cercospora arachidicola); test: Fungicidal activity against Mycosphaerella arachidis (Cercospora arachidicola) / liquid culture (early leaf spot); format: cell-based; details: 4-5 days after application, read-out: disease control (inhibition of growth, photometrically)
Procedure, shortened: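 Cryopreserved conidia in potato dextrose broth added to compound in DMSO in microtiter plates. Incubation at 24 °C; growth inhibition read photometrically 4-5 days after application.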

[6] = test system: Mycosphaerella graminicola (Septoria tritici); test: Fungicidal activity against Mycosphaerella graminicola (Septoria tritici) / liquid culture (Septoria blotch); format: cell-based; details: Zymoseptoria tritici, 4-5 days after application, read-out: disease control (inhibition of growth, photometrically)
Procedure, shortened: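 Cryo-stored conidia were suspended in potato dextrose broth and added to test compound dispensed from DMSO solution. Plates were held at 24° C., and growth inhibition was measured photometrically 4-5 days after application.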

[7] = test system: Phaeosphaeria nodorum (Septoria nodorum); test: Fungicidal activity against Phaeosphaeria nodorum (Septoria nodorum) / wheat / leaf disc preventative (glume blotch); format: in vivo; details: Parastagonospora nodorum, foliar, wheat leaf segments, inoculated 2 days after application, compared to untreated, read-out: disease control
Procedure, shortened: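 Wheat cv. Kanzler leaf segments on agar, sprayed with diluted formulated compound, then spore-inoculated 2 days later. Kept at 20 °C, 75% rh, 12 h light/12 h dark; percent disease control versus untreated scored once untreated discs show disease, 5–7 days after application.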

[8] = test system: Puccinia recondita f. sp. tritici; test: Fungicidal activity against Puccinia recondita f. sp. tritici / wheat / leaf disc preventative (brown rust); format: in vivo; details: foliar, wheat leaf segments, inoculated 1 day after application, compared to untreated, read-out: disease control
Procedure, shortened: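 Wheat leaf segments (cv. Kanzler) on agar sprayed with formulated compound in water, inoculated with spore suspension 1 day later. Incubated at 19° C, 75% rh, 12 h light/12 h dark; percent disease control versus untreated scored 7-9 days after application.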

Pyrenophora teres = test: Fungicidal activity against Pyrenophora teres / barley / leaf disc preventative (net blotch); format: in vivo; details: foliar, barley leaf segments, inoculated 2 days after application, compared to untreated, read-out: disease control
Procedure, shortened: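 Barley leaf segments (cv. Hasso) on agar sprayed with formulated compound in water, then spore-inoculated 2 days later. Kept at 20 °C, 65% rh, 12 h light/dark; disease control versus untreated scored 5-7 days after application.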

[9] = test system: Thanatephorus cucumeris (Rhizoctonia solani); test: Fungicidal activity against Thanatephorus cucumeris (Rhizoctonia solani) / liquid culture (foot rot, damping-off); format: cell-based; details: 3-4 days after application, read-out: disease control (inhibition of growth, photometrically)
Procedure, shortened: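 Fungal mycelia fragments from fresh liquid culture were mixed into potato dextrose broth and added to test compounds supplied in DMSO. Incubation was at 24° C. Growth inhibition was read photometrically 3-4 days after application.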

Structure (SMILES)	melting point [°C]	pest or weed control at 200 ppm (Alternaria solani) [%]	pest or weed control at 200 ppm [1] [%]	inhibition at 200 ppm [2] [%]	inhibition at 200 ppm (Gaeumannomyces graminis) [%]	inhibition at 200 ppm [3] [%]	inhibition at 200 ppm [4] [%]	inhibition at 200 ppm [5] [%]	inhibition at 200 ppm [6] [%]	pest or weed control at 200 ppm [7] [%]	pest or weed control at 200 ppm [8] [%]	pest or weed control at 200 ppm (Pyrenophora teres) [%]	inhibition at 200 ppm [9] [%]
Clc1ccccc1Cc1cccc(-c2ncc3c(n2)CCOC3)n1 [Compound 3]	112 to 113	≥ 80	≥ 80	≥ 80	≥ 80	≥ 80	≥ 80	≥ 80	≥ 80	≥ 80	≥ 80	≥ 80	≥ 80
c1ccc(Cc2cccc(-c3ncc4c(n3)CCC3(C4)OCCO3)n2)cc1 [Compound 19]	236 to 237	≥ 80	≥ 80	≥ 80	≥ 80	≥ 80	≥ 80	≥ 80	≥ 80	≥ 80	≥ 80	≥ 80	≥ 80
COc1ccc(Cc2cccc(-c3ncc4c(n3)CCOC4)n2)cc1 [Compound 21]	216 to 219	≥ 80	≥ 80	≥ 80	≥ 80	≥ 80	≥ 80	≥ 80	≥ 80	≥ 80	≥ 80	≥ 80	≥ 80

Further lines, with some results ahead:

melting point [°C]	Structure (SMILES)	pest or weed control at 200 ppm (Alternaria solani) [%]	pest or weed control at 200 ppm [1] [%]	inhibition at 200 ppm [2] [%]	inhibition at 200 ppm (Gaeumannomyces graminis) [%]	inhibition at 200 ppm [3] [%]	inhibition at 200 ppm [4] [%]	inhibition at 200 ppm [5] [%]	inhibition at 200 ppm [6] [%]	pest or weed control at 200 ppm [7] [%]	pest or weed control at 200 ppm [8] [%]	pest or weed control at 200 ppm (Pyrenophora teres) [%]	inhibition at 200 ppm [9] [%]
104 to 106	Clc1ccc(Cc2cccc(-c3ncc4c(n3)CCOC4)n2)cc1 [Compound 5]	≥ 80	≥ 80	≥ 80	≥ 80	≥ 80	≥ 80	≥ 80	≥ 80	≥ 80	≥ 80	≥ 80	≥ 80
135 to 137	COc1ccccc1Cc1cccc(-c2ncc3c(n2)CCOC3)n1 [Compound 7]	≥ 80	≥ 80	≥ 80	≥ 80	≥ 80	≥ 80	≥ 80	≥ 80	≥ 80	≥ 80	≥ 80	–

— US20130281467A1, “NOVEL MICROBICIDES” (SYNGENTA PARTICIPATIONS AG, priority 2010, published 2013)
